Reference: PMC11284088, “Synthesis and biochemical characterization of naphthoquinone derivatives targeting bacterial histidine kinases” (The Journal of Antibiotics, 2024)
“Also recorded” adds a separate entry of the source. Where two headings read alike, the source gives them in different places.

Assays:
iseA (formerly yoeB) [1] = assay: RT-qPCR of iseA expression in B. subtilis cells; format: cell-based, B. subtilis 168; parameters: key to RT-qPCR: RT-qPCR + iseA gene expression was induced in B. subtilis 168; − no effect
Method: In brief, the cells were aerated and grown to an optical density at 660 nm of 0.3–0.4 at 37 °C. After the addition of DMSO or naphthoquinone derivatives, the cultures were further incubated for 5 min, cooled on ice for 1 min, and then harvested by centrifugation (2300 × g, 10 min, 4 °C). The cells were resuspended in 800 µl of RNA Lysis Buffer (SV Total RNA Isolation System, Z3100, Promega), transferred to a screw-capped tube containing 400 mg of glass beads (GB-01, TOMY), and disrupted using MicroSmash (MS-100, TOMY Medico) at 3000 rpm, 60 s ON/OFF for 6 cycles. RNA was then purified from 175 µl of the supernatant using the SV Total RNA Isolation System, followed by DNase I treatment (Turbo DNA-free^TM Kit, AM1907, Invitrogen) to remove any residual genomic DNA contamination. […] The expression levels of the genes were normalized using the 16S rRNA gene as an internal standard. Each assay was performed at least three times. Statistical analyses were conducted using Tukey’s multiple comparison test (GraphPad Prism 7).

CpxA = biological target: T1, CpxA (Escherichia coli, UniProt P0AE82); assay: Inhibition of CpxA autophosphorylation; format: biochemical, Escherichia coli K12
T1 construct: cytoplasmic regions of PhoQ (261-486) and CpxA (188-457); His6 (C); made in house; host or cells: E. coli BL21(DE3)
T1 sequence (P0AE82 188-457): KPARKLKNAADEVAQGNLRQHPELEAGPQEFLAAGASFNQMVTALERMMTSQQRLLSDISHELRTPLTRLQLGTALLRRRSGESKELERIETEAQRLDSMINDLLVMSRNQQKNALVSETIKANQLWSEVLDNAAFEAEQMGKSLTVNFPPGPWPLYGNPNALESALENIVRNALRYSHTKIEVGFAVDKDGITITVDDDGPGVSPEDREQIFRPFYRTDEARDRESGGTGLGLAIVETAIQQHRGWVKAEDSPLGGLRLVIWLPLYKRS
Method: (§1) The total reaction volume was 40 µl, and the incubation lasted for 30 min at 25 °C. To terminate the reaction, 40 µl of 2 × SDS-PAGE sample buffer was added, followed by a 10-min incubation at 37 °C. Subsequently, SDS-PAGE (10% acrylamide) was performed, and the samples were subjected to Western blotting using a PVDF membrane (Bio-Rad 1620177). The primary antibody used was anti-N3-phosphohistidine antibody (clone SC56-2) (EDM Millipore Corp), and the secondary antibody was goat anti-rabbit IgG-HRP (Abcam). A 2% bovine serum albumin (Sigma-Aldrich) solution served as the blocking reagent. Signals originating from phosphorylated HKs were detected using the HRP substrate (Immobilon Western Chemiluminescent HRP substrate, Millipore) and the Multi Imager II Multi Box (Bio Tools). Signal intensities were quantified with Image Analysis Software CS Analyzer 4 (ATTO). IC50 values (50% inhibitory concentrations) were determined using Prism 7 software (GraphPad).
In the assessment of naphthoquinone derivatives, the initial screening for inhibitory activity against WalK autophosphorylation was conducted at 50 or 100 µg ml^−1. Compounds displaying inhibitory activity were further examined to ascertain their IC50 values against WalK. For the chosen compounds, inhibition against EvgS, EnvZ, PhoQ, and CpxA HKs was also assessed. […]

EvgS (559–1197) D1009A = biological target: T2, EvgS (559–1197) D1009A (Escherichia coli, UniProt P30855, D1009A); assay: Inhibition of EvgS autophosphorylation; format: biochemical, Escherichia coli K12
T2 construct: EvgS (559–1197) D1009A; His6 (C); made in house; host or cells: E. coli BL21(DE3)
T2 sequence (P30855 559-1197 D1009A): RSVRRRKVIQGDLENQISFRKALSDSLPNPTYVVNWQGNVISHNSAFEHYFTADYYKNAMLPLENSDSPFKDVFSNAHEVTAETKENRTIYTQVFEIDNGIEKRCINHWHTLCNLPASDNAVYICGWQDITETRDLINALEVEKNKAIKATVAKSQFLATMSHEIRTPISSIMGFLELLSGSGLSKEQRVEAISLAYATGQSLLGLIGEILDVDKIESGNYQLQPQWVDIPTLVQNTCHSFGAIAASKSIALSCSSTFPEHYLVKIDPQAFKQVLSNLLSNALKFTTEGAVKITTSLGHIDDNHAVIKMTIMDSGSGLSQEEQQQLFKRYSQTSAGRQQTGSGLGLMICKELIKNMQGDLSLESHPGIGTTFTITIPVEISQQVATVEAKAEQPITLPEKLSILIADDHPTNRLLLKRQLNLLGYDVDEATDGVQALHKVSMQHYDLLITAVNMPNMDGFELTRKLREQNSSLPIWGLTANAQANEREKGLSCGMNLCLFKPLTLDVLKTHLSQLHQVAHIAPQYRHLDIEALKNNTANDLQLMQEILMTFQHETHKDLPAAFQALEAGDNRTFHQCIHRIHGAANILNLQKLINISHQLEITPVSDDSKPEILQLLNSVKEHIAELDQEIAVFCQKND
Method: as §1, with “Autophosphorylation of WalK was conducted at 0.5 or 1 µM in a reaction mixture comprising 50 mM Tris-HCl (pH 8.5), 100 mM KCl, 5 mM MgCl2, 100 mM NH4Cl, 5% DMSO, and 40 µM ATP. The total” for “The total”
(§2) In the assessment of naphthoquinone derivatives, the initial screening for inhibitory activity against WalK autophosphorylation was conducted at 50 or 100 µg ml^−1. Compounds displaying inhibitory activity were further examined to ascertain their IC50 values against WalK. For the chosen compounds, inhibition against EvgS, EnvZ, PhoQ, and CpxA HKs was also assessed. These reactions involved the use of 1 µM HK, 40 µM ATP, and a 30 min incubation at 25 °C.

[2] = tested on: HKs (EvgS, EnvZ, PhoQ, and CpxA); assay: Inhibition of class I HKs, summary over several HKs; format: biochemical, Escherichia coli K12; parameters: key to HKs: HKs + inhibitory effect against HKs (EvgS, EnvZ, PhoQ, and CpxA)
Method: as §1, with “Autophosphorylation of WalK was conducted at 0.5 or 1 µM in a reaction mixture comprising 50 mM Tris-HCl (pH 8.5), 100 mM KCl, 5 mM MgCl2, 100 mM NH4Cl, 5% DMSO, and 40 µM ATP. The total” for “The total”
as §2

B. subtilis 168 strain [3] = assay: MIC, standard microtiter broth dilution; format: cell-based, Bacillus subtilis; parameters: key to MIC: MIC + antibacterial activity against Bacillus subtilis 168
Method: The minimum inhibitory concentrations (MICs) were determined using the standard microtiter broth dilution method, as recommended by the guidelines of the Clinical Laboratory Standards Institute.

WalK [4] = biological target: T3, WalK (Bacillus subtilis, UniProt Q45614); assay: Inhibition of WalK autophosphorylation; format: biochemical; parameters: key to WalK: WalK + inhibitory effect against WalK; settings: for IC50: against WalK from B. subtilis, autophosphorylation, N.I. = no inhibition, read-out: IC50
T3 construct: His6 (N); made in house; host or cells: E. coli BL21(DE3)
T3 sequence (Q45614 207-611): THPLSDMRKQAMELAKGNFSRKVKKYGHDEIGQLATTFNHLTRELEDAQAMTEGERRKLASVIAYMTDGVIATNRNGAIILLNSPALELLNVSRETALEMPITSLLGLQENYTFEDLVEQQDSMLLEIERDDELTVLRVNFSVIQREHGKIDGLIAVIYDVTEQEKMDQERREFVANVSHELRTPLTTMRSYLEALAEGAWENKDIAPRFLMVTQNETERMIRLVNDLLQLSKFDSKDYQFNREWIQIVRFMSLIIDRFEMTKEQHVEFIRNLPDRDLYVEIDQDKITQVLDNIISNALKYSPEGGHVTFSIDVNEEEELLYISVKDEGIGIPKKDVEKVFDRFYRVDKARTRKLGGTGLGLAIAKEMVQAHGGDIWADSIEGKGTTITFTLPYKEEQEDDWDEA
Method: as §1, with “Autophosphorylation of WalK was conducted at 0.5 or 1 µM in a reaction mixture comprising 50 mM Tris-HCl (pH 8.5), 100 mM KCl, 5 mM MgCl2, 100 mM NH4Cl, 5% DMSO, and 40 µM ATP. The total” for “The total”
as §2

EnvZ = biological target: T4, EnvZ (Escherichia coli, UniProt P0AEJ4); assay: Inhibition of EnvZ autophosphorylation; format: biochemical, Escherichia coli K12
T4 construct: pETEcEnvZ(223-450); His6 (C); made in house; host or cells: E. coli BL21(DE3)
T4 sequence (P0AEJ4 223-450): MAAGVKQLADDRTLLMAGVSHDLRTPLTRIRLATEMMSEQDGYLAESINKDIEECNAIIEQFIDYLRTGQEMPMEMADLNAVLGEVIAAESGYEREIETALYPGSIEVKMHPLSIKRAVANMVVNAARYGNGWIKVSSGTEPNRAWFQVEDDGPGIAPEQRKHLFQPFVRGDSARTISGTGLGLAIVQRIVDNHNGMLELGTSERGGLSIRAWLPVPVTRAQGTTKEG
Method: as §1, with “Autophosphorylation of WalK was conducted at 0.5 or 1 µM in a reaction mixture comprising 50 mM Tris-HCl (pH 8.5), 100 mM KCl, 5 mM MgCl2, 100 mM NH4Cl, 5% DMSO, and 40 µM ATP. The total” for “The total”
as §2

PhoQ = biological target: T5, PhoQ (Escherichia coli, UniProt P23837); assay: Inhibition of PhoQ autophosphorylation; format: biochemical, Escherichia coli K12
T5 construct: cytoplasmic regions of PhoQ (261-486) and CpxA (188-457); His6 (C); made in house; host or cells: E. coli BL21(DE3)
T5 sequence (P23837 261-486): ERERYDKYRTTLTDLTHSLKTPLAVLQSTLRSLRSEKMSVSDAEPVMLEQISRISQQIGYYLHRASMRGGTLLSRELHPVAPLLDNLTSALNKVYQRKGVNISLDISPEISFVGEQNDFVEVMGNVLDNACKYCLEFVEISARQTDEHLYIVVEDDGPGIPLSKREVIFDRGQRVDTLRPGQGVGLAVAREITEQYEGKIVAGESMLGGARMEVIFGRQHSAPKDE
Method: as §1, with “Autophosphorylation of WalK was conducted at 0.5 or 1 µM in a reaction mixture comprising 50 mM Tris-HCl (pH 8.5), 100 mM KCl, 5 mM MgCl2, 100 mM NH4Cl, 5% DMSO, and 40 µM ATP. The total” for “The total”
as §2

[5] = biological target: T6, WalK (207-611, B. subtilis) (Bacillus subtilis, UniProt Q45614); assay: Affinity selection/mass spectrometry, competition with waldiomycin; format: binding; parameters: key to AS/MS: AS/MS + competitive inhibition of the binding of waldiomycin to WalK; − increased binding of waldiomycin to WalK
T6 construct: His6 (N); made in house; host or cells: E. coli BL21(DE3)
T6 sequence (Q45614 207-611): as the sequence (Q45614 207-611) above
Method: The affinity selection/mass spectrometry (AS/MS) is a method which can detect the binding of small compounds to proteins. This experiment was carried out following a previously established protocol (Fig. 5), with the exception of using Millipore 96-well filter plates (MSBVN1210) instead of MAHAN4510. In the experiment, 1 µM of WalK (207-611, B. subtilis, refer to Table S2) was combined and incubated with 5 µM of waldiomycin and competitor compounds in a reaction buffer. The buffer composition was as follows: 25 mM Tris-HCl (pH 8.0), 50 mM KCl, 50 mM NH4Cl, 5 mM MgCl2, 1 mM DTT, and 0.1% CHAPS. Following the incubation, the mixture was subjected to size-exclusion chromatography via centrifugation to eliminate free compounds. The protein that was eluted was then denatured by adding an equal volume of methanol/0.1% formic acid. The compounds that were subsequently released from the protein were detected using an LC/MS system. The concentrations of waldiomycin were calculated from the value of peak areas using calibration curve that covered the range of 1 nM to 1 µM (R^2 = 0.9991). The concentration of waldiomycin in the eluate of WalK and waldiomycin without competitor was 10.1 nM, and percentages to this value were calculated for other samples.

class I HKs = tested on: class I HKs; parameters: method as in PMID 27999439; settings: including WalK, PhoQ, EnvZ, and CpxA; cited from earlier work
iseA (formerly yoeB) [6] = tested on: iseA (formerly yoeB); parameters: method as in PMID 27999439, PMID 28674376, PMID 26582287; key: RT-qPCR + iseA gene expression was induced in B. subtilis 168; − no effect; settings: summary class, iseA gene expression; cited from earlier work
B. subtilis 168 strain [7] = tested on: B. subtilis 168 strain; parameters: method as in PMID 27999439, PMID 28674376, PMID 26582287; key: MIC + antibacterial activity against Bacillus subtilis 168; settings: Bacillus subtilis 168, cited from earlier work
[8] = tested on: HKs (EvgS, EnvZ, PhoQ, and CpxA); parameters: key: HKs + inhibitory effect against HKs (EvgS, EnvZ, PhoQ, and CpxA); settings: summary class; cited from earlier work
WalK [9] = biological target: T3, WalK; parameters: key: WalK + inhibitory effect against WalK; settings: summary class; cited from earlier work
[10] = Bacillus subtilis, B. subtilis 168 strain grown in LB broth at 37 °C for 18 h, read-out: MIC

## Nc1cccc2c1C(=O)C(Cl)=C(Nc1ccc(O)c(C(=O)O)c1)C2=O [2o, 5-((5-amino-3-chloro-1,4-dioxo-1,4-dihydronaphthalen-2-yl)amino)-2-hydroxybenzoic acid]
iseA (formerly yoeB) [1]; exponentially growing cells, subMIC or MIC levels, 5 min, relative to DMSO control
  expression of iseA: did not change
iseA (formerly yoeB) [1]; summary class, iseA gene expression in B. subtilis 168
  RT-qPCR: −
CpxA
  IC50: 0.8 µM
EvgS (559–1197) D1009A
  IC50: 0.2 µM
[2]; in words
  inhibition of EvgS, EnvZ, PhoQ, and CpxA: inhibited all four of these HKs
[2]; summary class, EvgS, EnvZ, PhoQ, and CpxA
  HKs: +
B. subtilis 168 strain [3]; [10]
  MIC: 16 µg/mL
B. subtilis 168 strain [3]; in words
  antibacterial (antimicrobial) activity against B. subtilis: weaker
B. subtilis 168 strain [3]; summary class, Bacillus subtilis 168
  MIC: +
WalK [4]
  IC50: 25.9 µM
WalK [4]; in words
  inhibitory activity against WalK: weaker
WalK [4]; summary class
  WalK: +
EnvZ
  IC50: 1.3 µM
PhoQ
  IC50: 0.1 µM
[5]; compound 30 and 100 µM, in words
  effect on the signal of waldiomycin: reduced the signal of waldiomycin in a dose-dependent manner
[5]; compound at 100 µM, waldiomycin 5 µM, WalK 1 µM
  signal of waldiomycin compared to only waldiomycin with WalK: about 10%
[5]; in words
  binding to WalK competitive with that of waldiomycin: competitive; also recorded: competitively interacted with waldiomycin
[5]; summary class, effect on binding of waldiomycin to WalK
  AS/MS: +

## C[C@@H]1O[C@](C)(C(=O)O)OC1/C=C/C=C/C=C/C(=O)O[C@H]1CC[C@H](c2ccc3c(c2O)C(=O)c2ccc4c(c2C3=O)C(=O)[C@@H](O)[C@](C)(O)C4)O[C@@H]1C (stereo partly shown) [Waldiomycin, reference compound]
CpxA
  IC50: 93.9 µM
EvgS (559–1197) D1009A
  IC50: 66.8 µM
B. subtilis 168 strain [3]; [10]
  MIC: 8 µg/mL
Class I HKs
  inhibition of class I HKs: inhibited 13 class I HKs
WalK [4]
  IC50: 13.1 µM
iseA (formerly yoeB) [6]
  RT-qPCR: +
B. subtilis 168 strain [7]
  MIC: 8 µg/mL
B. subtilis 168 strain [7]; summary class
  MIC: +
EnvZ
  IC50: 33.1 µM
PhoQ
  IC50: 10.9 µM
[5]; without competitor, WalK 1 µM, waldiomycin 5 µM
  concentration of waldiomycin in the eluate of WalK and waldiomycin: 10.1 nM
[8]
  HKs: +
WalK [9]
  WalK: +
